Entries after “also recorded” stand apart in the source; their conditions may differ. No end group written: not given here.
Legend:
mouse stem cell factor = mouse stem cell factor (Mus musculus, UniProt P20826); assay: PT-18β proliferation assay (3H-thymidine), non-γc cytokine SCF; type: cell-based; details: 1 nM mouse stem cell factor, 15 μM BNZ132-1
[1] = tested on: IL-2/IL-15-induced proliferation of ex vivo human T-lymphocytes; type: cell-based
Protocol: FIG. 7A, and FIG. 7B present effective inhibition of a combined function of target γc-cytokines by BNZ132-1. […] Human Peripheral T cells were prepared as described in the methodology section. Four hundred thousand cells (in 200 μl culture) were incubated with the cytokines and BNZ132-1 at the indicated concentrations for 24 h, and cellular proliferation was determined by the […] using the WST-1 reagent (Clontech). The Y-axis represents the OD450 values. The p values; 1 nM cytokine combination—No inhibition vs. anti-IL-2; 0.33, No inhibition vs. anti-IL-15; 0.13, No inhibition vs. anti IL-2+IL-15; 0.003. No inhibition vs. BNZ132-1; 0.021. 0.1 nM cytokine combination—No inhibition vs. anti-IL-2; 0.046, No inhibition vs. anti-IL-15; 0.057, No inhibition vs. anti IL-2+IL-15; 0.001, No inhibition vs. anti IL-2+15; 0.001, No inhibition vs.BNZ132-1; 0.001. The assay was performed in triplicate. […] Peripheral blood mononuclear cells were purified from the blood of a HAM-TSP patient and set up for a spontaneous proliferation assay as previously described36. The cellular proliferation was measured by the thymidine incorporation assay. The Y-axis represents the cpm values. Doses are on the X-axis; BNZ132-1, 3 and 0.3 μM. […] After 12 h incubation, OD450 was measured. […] Absorbance at 450 nm was read at 6 h after the addition of the WST-1 dye. […]

Sequence of mouse stem cell factor (P20826 26-273): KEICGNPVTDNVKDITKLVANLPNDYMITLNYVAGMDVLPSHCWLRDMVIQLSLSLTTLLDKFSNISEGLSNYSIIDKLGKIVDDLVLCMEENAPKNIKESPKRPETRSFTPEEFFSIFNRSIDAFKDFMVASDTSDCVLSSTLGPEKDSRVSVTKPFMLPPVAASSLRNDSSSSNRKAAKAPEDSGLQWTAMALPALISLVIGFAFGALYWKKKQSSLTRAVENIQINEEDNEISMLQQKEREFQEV

IKEFLQRFIHIVQSIINTS [BNZ132-1] was tested, and the “inhibition of SCF-induced proliferation of PT-18β cells” value (mouse stem cell factor) was “did not inhibit; also recorded: no inhibition; also recorded: no inhibition of non-γc cytokines” and the IC50 [1] was 150 nM.
